Results: US11547697B2, “Heterocyclic compounds and uses thereof” (MILLENNIUM PHARMACEUTICALS, INC., priority 2009, dated 2023)
Like-named read-outs stand apart in the source and are kept apart here.

Key:
[1] = tested on: tumor cells with a PI3Kα mutation (e.g., MDA-MB-361 and T47D); assay: Proliferation of tumor cells with PI3Kα mutation; format: cell-based; details: Homo sapiens
[2] = target: p110γ (Homo sapiens (Human), UniProt P48736); assay: PI 3-Kinase (human) HTRF assay, p110γ; format: biochemical
[3] = target: p110δ/p85α (Homo sapiens (Human), UniProt O00329); assay: PI 3-Kinase (human) HTRF assay, p110δ/p85α; format: biochemical
[4] = target: p110α/p85α (Homo sapiens (Human), UniProt P42336); assay: PI 3-Kinase (human) HTRF assay, p110α/p85α; format: biochemical
[5] = target: p110β/p85α (Homo sapiens (Human), UniProt P42338); assay: PI 3-Kinase (human) HTRF assay, p110β/p85α; format: biochemical
Description: An exemplary system is PI 3-Kinase (human) HTRF™ Assay from Upstate. […] Briefly, the assay is a time resolved FRET assay that indirectly measures PIP3 product formed by the activity of a PI3-K. The kinase reaction is performed in a microtitre plate (e.g., a 384 well microtitre plate). The total reaction volume is approximately 20 ul per well. In the first step, each well receives 2 ul of test compound in 20% dimethylsulphoxide resulting in a 2% DMSO final concentration. Next, approximately 14.5 ul of a kinase/PIP2 mixture (diluted in 1× reaction buffer) is added per well for a final concentration of 0.25-0.3 ug/ml kinase and 10 μM PIP2. The plate is sealed and incubated for 15 minutes at room temperature. To start the reaction, 3.5 ul of ATP (diluted in 1× reaction buffer) is added per well for a final concentration of 10 μM ATP. The plate is sealed and incubated for 1 hour at room temperature. The reaction is stopped by adding 5 ul of Stop Solution per well and then 5 ul of Detection Mix is added per well. The plate is sealed, incubated for 1 hour at room temperature, and then read on an appropriate plate reader. Data is analyzed and IC50s are generated using GraphPad Prism 5. […] For PI3K α, β, δ, and γ, the nM concentration of inhibitor to reach IC50 is provided.

[6] = T47D cells, read-out: T47D proliferation
[7] = T47D cells, read-out: T47D proliferation IC50
[8] = in vitro, read-out: PI3K γ IC50
[9] = in vitro, read-out: PI3K α IC50
[10] = in vitro, read-out: PI3K β IC50
[11] = in vitro, read-out: PI3K δ IC50
[12] = PC3, read-out: PC3 proliferation In Vitro IC50

p110δ/p85α, sequence (O00329 whole entry): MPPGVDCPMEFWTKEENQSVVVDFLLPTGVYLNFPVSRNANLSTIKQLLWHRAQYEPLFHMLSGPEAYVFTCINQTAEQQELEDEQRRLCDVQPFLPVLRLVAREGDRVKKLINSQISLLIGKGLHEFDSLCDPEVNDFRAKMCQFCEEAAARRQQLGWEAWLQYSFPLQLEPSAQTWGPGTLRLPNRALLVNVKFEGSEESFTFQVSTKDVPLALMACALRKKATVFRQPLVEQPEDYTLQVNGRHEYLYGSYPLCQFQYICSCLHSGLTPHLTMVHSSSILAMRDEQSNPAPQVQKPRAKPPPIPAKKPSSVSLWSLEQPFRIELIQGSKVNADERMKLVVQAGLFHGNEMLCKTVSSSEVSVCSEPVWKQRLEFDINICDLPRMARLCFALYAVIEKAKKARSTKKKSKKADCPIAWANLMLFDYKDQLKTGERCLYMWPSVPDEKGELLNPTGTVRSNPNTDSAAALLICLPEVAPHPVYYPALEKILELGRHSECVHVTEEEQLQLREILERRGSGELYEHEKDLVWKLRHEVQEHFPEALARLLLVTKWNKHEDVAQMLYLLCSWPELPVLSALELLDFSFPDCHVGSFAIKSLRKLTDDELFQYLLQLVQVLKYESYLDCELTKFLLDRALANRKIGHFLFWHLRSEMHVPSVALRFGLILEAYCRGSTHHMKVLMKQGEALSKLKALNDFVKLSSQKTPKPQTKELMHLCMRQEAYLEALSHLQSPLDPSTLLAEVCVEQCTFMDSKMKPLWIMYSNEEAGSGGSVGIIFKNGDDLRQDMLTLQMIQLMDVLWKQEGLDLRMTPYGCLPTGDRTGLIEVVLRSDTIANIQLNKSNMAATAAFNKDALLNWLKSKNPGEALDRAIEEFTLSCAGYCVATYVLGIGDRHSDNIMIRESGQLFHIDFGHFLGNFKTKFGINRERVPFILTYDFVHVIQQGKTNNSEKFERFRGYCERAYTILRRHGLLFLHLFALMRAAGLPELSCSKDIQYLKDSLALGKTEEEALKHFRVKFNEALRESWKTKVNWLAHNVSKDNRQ
p110δ/p85α, sequence (P27986 whole entry partner): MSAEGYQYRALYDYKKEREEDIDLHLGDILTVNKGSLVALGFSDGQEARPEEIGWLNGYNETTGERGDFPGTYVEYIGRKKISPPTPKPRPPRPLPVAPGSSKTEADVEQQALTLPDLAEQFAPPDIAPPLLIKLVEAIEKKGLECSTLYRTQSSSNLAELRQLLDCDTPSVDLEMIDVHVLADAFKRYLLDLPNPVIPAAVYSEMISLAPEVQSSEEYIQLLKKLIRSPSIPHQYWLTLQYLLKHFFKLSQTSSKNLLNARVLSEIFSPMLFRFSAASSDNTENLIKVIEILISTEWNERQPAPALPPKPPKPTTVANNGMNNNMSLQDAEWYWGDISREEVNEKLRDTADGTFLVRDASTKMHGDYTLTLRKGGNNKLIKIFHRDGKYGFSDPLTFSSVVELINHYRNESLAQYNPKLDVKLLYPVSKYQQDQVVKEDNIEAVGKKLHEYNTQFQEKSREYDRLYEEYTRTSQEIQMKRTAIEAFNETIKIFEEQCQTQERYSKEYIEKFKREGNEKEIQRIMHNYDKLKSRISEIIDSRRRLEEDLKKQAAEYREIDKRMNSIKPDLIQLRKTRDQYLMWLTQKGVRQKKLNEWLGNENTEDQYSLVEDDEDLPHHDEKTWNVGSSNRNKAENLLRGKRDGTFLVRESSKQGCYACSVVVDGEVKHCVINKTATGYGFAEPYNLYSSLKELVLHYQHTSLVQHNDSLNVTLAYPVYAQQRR
p110β/p85α, sequence (P42338 whole entry): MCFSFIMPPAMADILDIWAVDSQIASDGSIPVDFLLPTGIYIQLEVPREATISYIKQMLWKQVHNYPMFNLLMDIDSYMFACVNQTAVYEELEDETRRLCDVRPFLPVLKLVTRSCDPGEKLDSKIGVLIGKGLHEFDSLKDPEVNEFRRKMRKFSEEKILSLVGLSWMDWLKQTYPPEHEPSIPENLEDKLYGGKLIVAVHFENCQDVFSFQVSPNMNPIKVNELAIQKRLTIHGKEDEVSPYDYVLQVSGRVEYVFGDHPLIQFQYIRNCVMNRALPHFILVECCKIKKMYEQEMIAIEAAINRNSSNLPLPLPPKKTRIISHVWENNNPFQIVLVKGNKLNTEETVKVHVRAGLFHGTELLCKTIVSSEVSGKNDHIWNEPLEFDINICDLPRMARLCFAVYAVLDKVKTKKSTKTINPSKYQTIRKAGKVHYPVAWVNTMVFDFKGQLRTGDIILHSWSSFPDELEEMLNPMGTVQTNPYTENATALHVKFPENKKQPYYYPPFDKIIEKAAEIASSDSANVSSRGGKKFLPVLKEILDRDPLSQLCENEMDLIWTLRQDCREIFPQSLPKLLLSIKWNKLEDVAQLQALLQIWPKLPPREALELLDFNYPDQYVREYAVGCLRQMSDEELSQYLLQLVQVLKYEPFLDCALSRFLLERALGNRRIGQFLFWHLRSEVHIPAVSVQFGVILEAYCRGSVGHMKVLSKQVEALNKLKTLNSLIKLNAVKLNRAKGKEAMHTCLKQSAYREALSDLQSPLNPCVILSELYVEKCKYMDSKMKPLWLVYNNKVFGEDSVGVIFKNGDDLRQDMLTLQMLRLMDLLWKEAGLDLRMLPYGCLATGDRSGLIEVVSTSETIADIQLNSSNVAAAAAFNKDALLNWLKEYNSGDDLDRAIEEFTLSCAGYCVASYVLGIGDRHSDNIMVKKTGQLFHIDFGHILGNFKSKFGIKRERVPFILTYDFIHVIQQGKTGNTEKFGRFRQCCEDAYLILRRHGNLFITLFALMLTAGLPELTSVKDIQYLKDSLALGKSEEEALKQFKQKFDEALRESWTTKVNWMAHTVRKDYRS
p110β/p85α, sequence (P27986 whole entry partner): as the sequence (P27986 whole entry partner) above
p110α/p85α, sequence (P42336 whole entry): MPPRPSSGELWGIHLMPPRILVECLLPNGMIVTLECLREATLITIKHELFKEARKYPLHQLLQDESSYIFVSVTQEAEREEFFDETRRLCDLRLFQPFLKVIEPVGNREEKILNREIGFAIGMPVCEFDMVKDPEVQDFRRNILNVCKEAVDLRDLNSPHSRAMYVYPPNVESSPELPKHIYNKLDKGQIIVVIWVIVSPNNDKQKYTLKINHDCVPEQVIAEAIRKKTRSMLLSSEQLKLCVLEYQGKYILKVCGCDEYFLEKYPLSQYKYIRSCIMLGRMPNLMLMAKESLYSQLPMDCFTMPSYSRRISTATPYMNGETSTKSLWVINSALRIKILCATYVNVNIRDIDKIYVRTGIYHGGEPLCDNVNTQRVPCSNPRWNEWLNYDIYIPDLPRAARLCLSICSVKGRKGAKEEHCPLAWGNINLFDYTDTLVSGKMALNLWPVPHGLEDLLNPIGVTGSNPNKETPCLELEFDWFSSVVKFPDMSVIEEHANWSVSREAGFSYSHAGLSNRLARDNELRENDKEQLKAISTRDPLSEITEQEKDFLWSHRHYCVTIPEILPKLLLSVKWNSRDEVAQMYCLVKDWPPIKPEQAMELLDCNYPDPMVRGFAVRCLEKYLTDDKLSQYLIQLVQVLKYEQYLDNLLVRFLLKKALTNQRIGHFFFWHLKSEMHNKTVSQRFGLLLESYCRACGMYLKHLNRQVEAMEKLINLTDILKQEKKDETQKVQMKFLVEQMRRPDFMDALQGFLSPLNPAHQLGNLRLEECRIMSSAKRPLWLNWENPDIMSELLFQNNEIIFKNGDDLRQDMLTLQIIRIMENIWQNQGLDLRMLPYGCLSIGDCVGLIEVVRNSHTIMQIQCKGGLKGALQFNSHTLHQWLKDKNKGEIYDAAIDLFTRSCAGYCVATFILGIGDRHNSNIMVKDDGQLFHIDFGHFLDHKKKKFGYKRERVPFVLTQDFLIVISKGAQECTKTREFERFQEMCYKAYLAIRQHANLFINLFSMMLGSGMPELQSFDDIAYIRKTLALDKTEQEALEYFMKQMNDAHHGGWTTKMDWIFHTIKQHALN
p110α/p85α, sequence (P27986 whole entry partner): as the sequence (P27986 whole entry partner) above
p110γ, sequence (P48736 whole entry): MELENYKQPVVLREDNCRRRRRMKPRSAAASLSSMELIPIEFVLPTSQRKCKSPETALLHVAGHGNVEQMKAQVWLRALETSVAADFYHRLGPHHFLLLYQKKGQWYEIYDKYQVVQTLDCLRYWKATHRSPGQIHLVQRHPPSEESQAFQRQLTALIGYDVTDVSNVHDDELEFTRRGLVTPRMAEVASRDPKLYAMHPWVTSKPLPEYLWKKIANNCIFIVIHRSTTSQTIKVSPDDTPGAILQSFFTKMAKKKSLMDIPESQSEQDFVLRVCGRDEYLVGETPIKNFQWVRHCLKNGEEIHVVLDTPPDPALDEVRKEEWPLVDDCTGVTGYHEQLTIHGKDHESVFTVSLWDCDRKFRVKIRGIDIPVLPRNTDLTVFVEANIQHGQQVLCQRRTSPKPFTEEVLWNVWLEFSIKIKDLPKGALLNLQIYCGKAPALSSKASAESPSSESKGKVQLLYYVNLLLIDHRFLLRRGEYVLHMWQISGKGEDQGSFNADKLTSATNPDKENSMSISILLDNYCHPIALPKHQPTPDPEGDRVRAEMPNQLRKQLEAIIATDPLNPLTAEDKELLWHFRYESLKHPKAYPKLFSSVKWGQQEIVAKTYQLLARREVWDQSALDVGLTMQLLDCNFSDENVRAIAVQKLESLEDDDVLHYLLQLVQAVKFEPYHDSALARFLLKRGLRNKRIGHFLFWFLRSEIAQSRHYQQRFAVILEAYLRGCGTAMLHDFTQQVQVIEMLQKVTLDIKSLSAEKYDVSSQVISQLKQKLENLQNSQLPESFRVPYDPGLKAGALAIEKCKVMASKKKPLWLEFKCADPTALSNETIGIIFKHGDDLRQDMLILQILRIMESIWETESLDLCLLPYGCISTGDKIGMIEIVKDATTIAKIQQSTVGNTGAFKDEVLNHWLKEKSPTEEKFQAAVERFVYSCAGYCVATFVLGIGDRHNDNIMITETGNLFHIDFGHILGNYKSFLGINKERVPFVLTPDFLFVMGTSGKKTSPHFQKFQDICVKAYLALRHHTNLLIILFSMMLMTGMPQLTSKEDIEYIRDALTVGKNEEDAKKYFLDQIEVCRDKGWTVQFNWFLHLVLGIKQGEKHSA

Compound | IC50 [1, 6] | IC50 ([2]; read-out: PI3K γ IC50) | IC50 ([4]; read-out: PI3K α IC50) | IC50 ([2]; read-out: PI3K γ In Vitro IC50) | IC50 ([4]; read-out: PI3K α In Vitro IC50) | further results
Nc1noc2cc(-c3ccc4nccc(-c5ccncc5)c4c3)ccc12 [compound 16] | < 1000 nM | < 1000 nM | < 100 nM |  |  | IC50 ([3]; read-out: PI3K δ IC50): < 10000 nM; IC50 ([5]; read-out: PI3K β IC50): < 10000 nM
CN1CCN(c2ccc(-c3cnc4ccc(-c5ccc6oc(N)nc6c5)cn34)cn2)CC1 [compound 42] | < 10000 nM | < 1000 nM | < 100 nM |  |  | IC50 ([3]; read-out: PI3K δ IC50): < 1000 nM
Nc1nc2cc(-c3ccc4ncc(-c5ccc6nc(N)oc6c5)n4c3)ccc2o1 [compound 50] | < 10000 nM | < 100 nM | < 100 nM |  |  | IC50 ([3]; read-out: PI3K δ IC50): < 10000 nM
CN1CCN(c2cnc3ccc(-c4ccc5oc(N)nc5c4)cc3n2)CC1 [compound 65] | < 10000 nM | < 1000 nM | < 100 nM |  |  | IC50 ([3]; read-out: PI3K δ IC50): < 10000 nM; IC50 ([5]; read-out: PI3K β IC50): < 100 nM
Nc1nc2cc(-c3ccc4ncc(-c5cnn(CCO)c5)nc4c3)ccc2o1 [compound 108] | < 1000 nM | < 100 nM | < 100 nM |  |  | IC50 ([5]; read-out: PI3K β IC50): < 10000 nM
CS(=O)(=O)N1CCN(C(=O)c2cnc3ccc(-c4ccc5oc(N)nc5c4)cn23)CC1 [compound 112] | < 1000 nM | < 1000 nM | < 100 nM |  |  | IC50 ([3]; read-out: PI3K δ IC50): < 10000 nM
CC(=O)N1CCN(C(=O)c2cnc3ccc(-c4ccc5oc(N)nc5c4)cn23)CC1 [compound 113] | < 10000 nM | < 1000 nM | < 100 nM |  |  | 
CN1CCN(c2cnc3ccc(-c4ccc5nc(N)sc5c4)cc3n2)CC1 [compound 115] | < 10000 nM | < 10000 nM | < 100 nM |  |  | IC50 ([5]; read-out: PI3K β IC50): < 100 nM
Nc1nc2cc(-c3ccc4ncc(N5CCOCC5)nc4c3)ccc2s1 [compound 116] | < 1000 nM | < 1000 nM | < 100 nM |  |  | IC50 ([5]; read-out: PI3K β IC50): < 1000 nM
Nc1nc2ccc(-c3ccc4ncc(N5CCOCC5)nc4c3)cc2o1 [compound 117] | < 10000 nM | < 1000 nM | < 100 nM |  |  | IC50 ([5]; read-out: PI3K β IC50): < 1000 nM
CNC(=O)CN1CCN(c2cnc3ccc(-c4ccc5oc(N)nc5c4)cc3n2)CC1 [compound 120] | < 1000 nM |  | < 100 nM |  |  | IC50 ([3]; read-out: PI3K δ IC50): < 10000 nM; IC50 ([5]; read-out: PI3K β IC50): < 1000 nM
Nc1nc2cc(-c3ccc4ncc(N5CCNC(=O)C5)nc4c3)ccc2o1 [compound 135] | < 1000 nM | < 1000 nM | < 100 nM |  |  | IC50 ([5]; read-out: PI3K β IC50): < 1000 nM
Nc1nc2cc(-c3ccc4ncc(C(=O)NC5CCC(O)CC5)n4c3)ccc2o1 (stereo not shown) [compound 143] | < 1000 nM |  |  |  |  | 
Nc1nc2cc(-c3ccc4ncc(C(=O)N5CCN(CCO)CC5)n4c3)ccc2o1 [compound 148] | < 10000 nM | < 10000 nM | < 100 nM |  |  | 
CC(C)N1CCN(C(=O)c2cnc3ccc(-c4ccc5oc(N)nc5c4)cn23)CC1 [compound 160] | < 10000 nM |  | < 100 nM |  |  | IC50 ([5]; read-out: PI3K β IC50): < 10000 nM
Nc1nc2cc(-c3ccc4ncc(N5CCC(N)CC5)nc4c3)ccc2o1 [compound 168] | < 10000 nM |  | < 100 nM |  |  | IC50 ([3]; read-out: PI3K δ IC50): < 10000 nM; IC50 ([5]; read-out: PI3K β IC50): < 1000 nM
Nc1nc2cc(-c3ccc4ncn(CCO)c(=O)c4c3)ccc2o1 [compound 184] | < 10000 nM | < 1000 nM | < 100 nM |  |  | IC50 ([5]; read-out: PI3K β IC50): < 10000 nM
CC1CN(C(=O)c2cnc3ccc(-c4ccc5oc(N)nc5c4)cn23)CCO1 (stereo not shown) [compound 201] |  |  |  |  |  | IC50 [1, 7]: < 10000 nM; IC50 [2, 8]: < 10000 nM; IC50 [4, 9]: < 100 nM; IC50 [5, 10]: < 10000 nM
CC(C)(N)C(=O)N1CCN(c2cnc3ccc(-c4ccc5oc(N)nc5c4)cc3n2)CC1 [compound 213] |  |  |  |  |  | IC50 [1, 7]: < 1000 nM; IC50 [3, 11]: < 1000 nM; IC50 [4, 9]: < 100 nM; IC50 [5, 10]: < 1000 nM

Compound | IC50 [1, 6] | IC50 ([2]; read-out: PI3K γ IC50) | IC50 ([4]; read-out: PI3K α IC50) | IC50 ([2]; read-out: PI3K γ In Vitro IC50) | IC50 ([4]; read-out: PI3K α In Vitro IC50) | further results
NC(=O)[C@@H]1CCCN1c1cnc2ccc(-c3ccc4oc(N)nc4c3)cc2n1 [compound 257] |  |  |  |  |  | IC50 [1, 7]: < 10000 nM; IC50 [4, 9]: < 100 nM
Nc1nc2cc(-c3ccc4ncc(N5CCN(C6CC6)CC5)nc4c3)ccc2o1 [compound 261] |  |  |  |  |  | IC50 [1, 7]: < 10000 nM; IC50 [2, 8]: < 1000 nM; IC50 [4, 9]: < 100 nM; IC50 [5, 10]: < 1000 nM
NC(=O)[C@@H]1CCCN1C(=O)C1CN(c2cnc3ccc(-c4ccc5oc(N)nc5c4)cc3n2)C1 [compound 283] |  |  |  |  |  | IC50 [1, 7]: < 10000 nM; IC50 [2, 8]: < 1000 nM; IC50 [4, 9]: < 100 nM
Cc1ccc(NC(=O)c2cnc3ccc(-c4ccc5oc(N)nc5c4)cn23)cn1 [compound 294] |  |  |  |  |  | IC50 [1, 7]: < 10000 nM; IC50 [2, 8]: < 100 nM; IC50 [3, 11]: < 10000 nM; IC50 [4, 9]: < 100 nM
Nc1nc2cc(-c3ccc4ncc(N5CC(N6CCN(CC7CC7)CC6)C5)nc4c3)ccc2o1 [compound 335] |  |  |  |  |  | IC50 [1, 7]: < 1000 nM; IC50 [3, 11]: < 10000 nM; IC50 [4, 9]: < 100 nM; IC50 [5, 10]: < 10000 nM
Nc1nc2cc(-c3ccc4ncc(N5CC(N6CCC(O)CC6)C5)nc4c3)ccc2o1 [compound 341] |  |  |  |  |  | IC50 [1, 7]: < 10000 nM; IC50 [2, 8]: < 10000 nM; IC50 [3, 11]: < 10000 nM; IC50 [4, 9]: < 1000 nM
CO[C@H]1CCN(C(=O)c2cnc3ccc(-c4ccc5oc(N)nc5c4)cn23)C1 [compound 463] |  |  |  | < 1000 nM | < 100 nM | IC50 ([3]; read-out: PI3K δ In Vitro IC50): < 10000 nM; IC50 ([5]; read-out: PI3K β In Vitro IC50): < 10000 nM
CO[C@@H]1CCN(C(=O)c2cnc3ccc(-c4ccc5oc(N)nc5c4)cn23)C1 [compound 464] |  |  |  | < 1000 nM | < 100 nM | IC50 [1, 12]: < 10000 nM
Nc1nc2cc(-c3ccc4ncc(C(=O)N5CC[C@@H](N6CCOCC6)C5)n4c3)ccc2o1 [compound 466] |  |  |  | < 1000 nM | < 1000 nM | IC50 ([3]; read-out: PI3K δ In Vitro IC50): < 10000 nM; IC50 ([5]; read-out: PI3K β In Vitro IC50): < 10000 nM
Nc1nc2cc(-c3ccc4ncc(C(=O)N5CCC(F)(F)C5)n4c3)ccc2o1 [compound 471] |  |  |  | < 100 nM | < 100 nM | IC50 [1, 12]: < 10000 nM
Nc1nc2cc(-c3ccc4ncc(C(=O)N5CC(F)(F)C5)n4c3)ccc2o1 [compound 473] |  |  |  | < 100 nM | < 100 nM | IC50 [1, 12]: < 1000 nM
Nc1nc2cc(-c3ccc4ncc(C(=O)N5C6CCC5COC6)n4c3)ccc2o1 [compound 480] |  |  |  | < 1000 nM | < 100 nM | IC50 [1, 12]: < 1000 nM; IC50 ([3]; read-out: PI3K δ In Vitro IC50): < 10000 nM
C[C@@H]1CCCN1C(=O)c1cnc2ccc(-c3ccc4oc(N)nc4c3)cn12 [compound 481] |  |  |  | < 1000 nM | < 100 nM | IC50 ([3]; read-out: PI3K δ In Vitro IC50): < 10000 nM; IC50 ([5]; read-out: PI3K β In Vitro IC50): < 10000 nM
C[C@H]1COCCN1C(=O)c1cnc2ccc(-c3ccc4oc(N)nc4c3)cn12 [compound 483] |  |  |  | < 10000 nM | < 100 nM | IC50 [1, 12]: < 10000 nM; IC50 ([5]; read-out: PI3K β In Vitro IC50): < 10000 nM
CC(C)N1CCC(n2cnc3ccc(-c4cncc(NS(=O)(=O)c5ccc(F)cc5F)c4)cc3c2=O)CC1 [compound 519] |  |  |  | < 1000 nM | < 1000 nM | IC50 ([3]; read-out: PI3K δ In Vitro IC50): < 10000 nM; IC50 ([5]; read-out: PI3K β In Vitro IC50): < 10000 nM
CC(C)N1CCC(n2cnc3ccc(-c4cnc(Cl)c(NS(=O)(=O)c5ccccc5)c4)cc3c2=O)CC1 [compound 521] |  |  |  | < 1000 nM | < 100 nM | IC50 ([3]; read-out: PI3K δ In Vitro IC50): < 100 nM; IC50 ([5]; read-out: PI3K β In Vitro IC50): < 100 nM
COc1ncc(-c2ccc3ncn(C4CCN(C)CC4)c(=O)c3c2)cc1NS(C)(=O)=O [compound 525] |  |  |  | < 10000 nM | < 100 nM | IC50 ([3]; read-out: PI3K δ In Vitro IC50): < 100 nM; IC50 ([5]; read-out: PI3K β In Vitro IC50): < 1000 nM
CN1CCC(n2cnc3ccc(-c4cnc(Cl)c(NS(C)(=O)=O)c4)cc3c2=O)CC1 [compound 526] |  |  |  |  | < 100 nM | IC50 [1, 12]: < 10000 nM; IC50 ([3]; read-out: PI3K δ In Vitro IC50): < 1000 nM; IC50 ([5]; read-out: PI3K β In Vitro IC50): < 10000 nM
CN1CCC(n2cnc3ccc(-c4cnc(Cl)c(NS(=O)(=O)c5ccccc5)c4)cc3c2=O)CC1 [compound 527] |  |  |  | < 1000 nM | < 100 nM | IC50 ([3]; read-out: PI3K δ In Vitro IC50): < 100 nM; IC50 ([5]; read-out: PI3K β In Vitro IC50): < 100 nM
